Assay results reported in the supplement of paper PMC11208160.

Assay: recombinant barcode read abundance after kanamycin selection (control-corrected) (log10(CPM+1)); higher = more efficient recombination; sequences stand for … in AGTGCAGAGAAAATCGGCCAGTTTTCTCTGCCTGCAGTCCGCATGCCGT…AGATTTATGCAGCGGACTGCCTTTCTCCCAAAGTGATAAACCGGACAGTATCATGGACCGGTTTTCCCGGTAATCCGTATTTGCAAGGTTGGTTTCACT; site = the 11-nt target
Procedure, shortened: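 Recombination efficiency was calculated from barcode counts at recombinant junctions, normalized to counts per million, averaged and corrected by the control. Each value is given as log10(CPM+1). The constructs were Gibson-cloned oligos (promoter, target, barcode, J23119-driven first 104 bridge RNA bases) in a vector with the remaining 73 bp and a T7-inducible recombinase, co-electroporated into E. coli with a donor plasmid and plated in duplicate on chloramphenicol/ampicillin LB agar (control) or chloramphenicol/ampicillin/kanamycin with 0.1 mM IPTG.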
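Note: IS621 recombinase and bridge RNA in Escherichia coli cells.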

| Sequence | recombinant barcode read abundance (log10) |
| --- | --- |
| ATTGGTTCTTGGGTTCTAACCTGTTGCCT (site ATTGGCTCTAG) | 0.104 |
| ATTGGTTCTTGGGTTCTAACCTGTTGCCT (site ATTGGGTCTAG) | 0.0515 |
| ATTGGTTCTTGGGTTCTAACCTGTTGCCT (site ATTGGTTCTAG) | 1.22 |
| ATTTGAACTTGGGTTCTAACCTGTTGCCT (site ATTTGAACTAG) | 0.086 |
| ATTTGAACTTGGGTTCTAACCTGTTGCCT (site ATTTGCACTAG) | 0.0882 |
| ATTTGAACTTGGGTTCTAACCTGTTGCCT (site ATTTGGACTAG) | 0.148 |
| ATTTGAACTTGGGTTCTAACCTGTTGCCT (site ATTTGTACTAG) | 0.101 |
| ATTTGACCTTGGGTTCTAACCTGTTGCCG (site ACTTGACCTCT) | 0.205 |
| ATTTGACCTTGGGTTCTAACCTGTTGCCG (site ATTTGACCTCG) | 0.67 |
| ATTTGAGCTTGGGTTCTAACCTGTTGCTG (site ATTTGAGCTCA) | 0.732 |
| ATTTGAGCTTGGGTTCTAACCTGTTGCTG (site GTATGAGCTCA) | 0.0966 |
| CAAAAGGCTTGGGTTCTAACCTGTTGCCG (site CAAAAGGCTCG) | 1.18 |
| CAAAAGGCTTGGGTTCTAACCTGTTGCCG (site GTGTCCTCTAC) | 0.239 |
| CAAACACCTTGGGTTCTAACCTGTTGCTT (site CAAACACCTAA) | 0.712 |
| CAAACACCTTGGGTTCTAACCTGTTGCTT (site CAACCACCTAA) | 0.0879 |
| CAAACACCTTGGGTTCTAACCTGTTGCTT (site CAAGCACCTAA) | 0.0323 |
| CAAACACCTTGGGTTCTAACCTGTTGCTT (site CAATCACCTAA) | 0.426 |
| CAAACCTCTTGGGTTCTAACCTGTTGCAC (site CAAACCTCTGT) | 1.97 |

| Sequence | recombinant barcode read abundance (log10) |
| --- | --- |
| CAAACCTCTTGGGTTCTAACCTGTTGCAC (site TCTTAGACTTC) | 0.0456 |
| CAAAGCCCTTGGGTTCTAACCTGTTGCCT (site CAAAGCCCTAG) | 1.9 |
| CAAAGCCCTTGGGTTCTAACCTGTTGCCT (site CGGAGCCCTAG) | 0.349 |
| CAACCGACTTGGGTTCTAACCTGTTGCCT (site CAACCGACTAG) | 1.61 |
| CAACCGACTTGGGTTCTAACCTGTTGCCT (site CAACCGCCTAG) | 0.265 |
| CAACCGACTTGGGTTCTAACCTGTTGCCT (site CAACCGGCTAG) | 0.0866 |
| CAACCGACTTGGGTTCTAACCTGTTGCCT (site CAACCGTCTAG) | 0.0239 |
| CAACCGCCTTGGGTTCTAACCTGTTGCCT (site CAACCGACTAG) | 0.411 |
| CAACCGCCTTGGGTTCTAACCTGTTGCCT (site CAACCGCCTAG) | 1.43 |
| CAACCGCCTTGGGTTCTAACCTGTTGCCT (site CAACCGGCTAG) | 0.402 |
| CAACCGCCTTGGGTTCTAACCTGTTGCCT (site CAACCGTCTAG) | 0.864 |
| CAACCTACTTGGGTTCTAACCTGTTGCCT (site CAACCTACTAG) | 0.586 |
| CAACCTACTTGGGTTCTAACCTGTTGCCT (site CAATCTACTAG) | 0.121 |
| CAACTTCCTTGGGTTCTAACCTGTTGCGT (site CAACTTCCTAC) | 1.18 |
| CAACTTCCTTGGGTTCTAACCTGTTGCGT (site CGGCTTCCTAC) | 0.496 |
| CAAGACGCTTGGGTTCTAACCTGTTGCCT (site CAAGACGCTAG) | 1.4 |
| CAAGACGCTTGGGTTCTAACCTGTTGCCT (site CTAGACGCTAG) | 1.34 |
| CAAGATGCTTGGGTTCTAACCTGTTGCCT (site CAAGATGCTAG) | 1.21 |
